Series [1] concerns the target T1, DasR (His-DasR) of S. erythraea (Saccharopolyspora erythraea, UniProt A4F723).
T1 construct: gene SACE_0500; full-length, His-tagged, expressed in E. coli BL21(DE3), Ni-NTA purified; predominantly dimer (c-di-AMP promotes dimerization)
T1 sequence (A4F723 1-251): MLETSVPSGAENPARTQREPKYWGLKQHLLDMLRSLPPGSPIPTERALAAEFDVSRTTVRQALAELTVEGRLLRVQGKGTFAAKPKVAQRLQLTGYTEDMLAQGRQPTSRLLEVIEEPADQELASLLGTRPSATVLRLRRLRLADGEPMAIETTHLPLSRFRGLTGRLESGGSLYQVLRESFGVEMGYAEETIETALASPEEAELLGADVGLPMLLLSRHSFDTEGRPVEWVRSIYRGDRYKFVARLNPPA
As to the kind of experiment: isothermal titration calorimetry. Format: binding. In general terms: In ITC the heat of successive injections is recorded.

The next series concerns the target T2, ScoDasR (DasR^Sco) (Streptomyces coelicolor, UniProt Q9K492).
T2 construct: full-length, His-tagged, expressed in E. coli BL21(DE3), Ni-NTA purified; GntR family, predominantly dimer
T2 sequence (Q9K492 1-254): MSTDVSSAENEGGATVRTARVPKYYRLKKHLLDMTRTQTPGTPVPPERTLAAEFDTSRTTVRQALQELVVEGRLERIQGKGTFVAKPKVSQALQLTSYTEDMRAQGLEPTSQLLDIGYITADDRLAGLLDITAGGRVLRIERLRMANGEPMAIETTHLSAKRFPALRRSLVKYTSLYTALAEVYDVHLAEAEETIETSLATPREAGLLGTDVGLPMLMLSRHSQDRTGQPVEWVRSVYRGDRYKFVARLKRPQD
Put plainly: isothermal titration calorimetry. The format is binding.

Series [2] concerns DasR (Saccharopolyspora erythraea). Put plainly: BLI. As to conditions: EMSA: 10 mM Tris-HCl pH 8.0, 25 mM MgCl2, 50 mM NaCl, 1 mM DTT, 1 mM EDTA, 0.01% NP-40, 50 ug/mL poly(dIdC), 10% glycerol, 18 C, 30 min, BLI: 10 mM HEPES pH ….

Regarding `Nc1ncnc2c1ncn2[C@@H]1O[C@@H]2COP(=O)(O)O[C@H]3[C@@H](O)[C@H](n4cnc5c(N)ncnc54)O[C@@H]3COP(=O)(O)O[C@H]2[C@H]1O` [c-di-AMP], the Kd in series [1] amounted to 26.8 µM; at ScoDasR (DasR^Sco), 23 µM.

In the case of nagA promoter, the dissociation constant (Kd) was 0.44 µM in series [2] (100 uM c-di-AMP) and 19 µM in series [2] (no c-di-AMP).

In general, Kd refers to the concentration at which binding is half-saturated.

For the origin of these results see paper PMC11076491, “Allosteric regulation by c-di-AMP modulates a complete N-acetylglucosamine signaling cascade in Saccharopolyspora erythraea” (Nature Communications, 2024).
